# Experimental data reported in patent publication US6534524B1, “Indazole compounds and pharmaceutical compositions for inhibiting protein kinases, and methods for their use” (Agouron Pharmaceuticals, Inc., priority 1999, dated 2003).
# pKi: −log10 of the molar value. Like-named read-outs stand apart in the source and are kept apart here.
# How the values were obtained:
# [1] = target: phosphorylated VEGF-R2Δ50 (FLVK-P) (Homo sapiens, UniProt P35968, DEL940-989/E990V); test: VEGF-R2 coupled spectrophotometric assay, phosphorylated VEGF-R2Δ50 (FLVK-P)
# Sequence of phosphorylated VEGF-R2Δ50 (FLVK-P) (P35968 with tags, fused parts or gaps DEL940-989/E990V limits assumed): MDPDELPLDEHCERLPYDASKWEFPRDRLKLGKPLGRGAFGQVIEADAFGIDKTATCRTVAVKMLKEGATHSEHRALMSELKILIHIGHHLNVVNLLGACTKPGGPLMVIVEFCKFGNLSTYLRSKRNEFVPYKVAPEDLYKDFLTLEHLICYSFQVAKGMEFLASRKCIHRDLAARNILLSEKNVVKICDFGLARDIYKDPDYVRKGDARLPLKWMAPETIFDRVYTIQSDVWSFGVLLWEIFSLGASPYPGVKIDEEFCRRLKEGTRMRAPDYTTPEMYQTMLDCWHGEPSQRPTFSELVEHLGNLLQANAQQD
# [2] = Human liver microsome (HLM) assay; assay type: in vitro ADME; details: human liver microsomes, 5 μM test compound
# In short: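 LC-MS quantified test compound remaining after 0 and 2 h incubation with human liver microsomes. Triplicate samples, clarified by 10 min centrifugation at 14000 g.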
# [3] = Determination of inhibitor concentration in mouse plasma after intraperitoneal and oral dosing; assay type: in vivo; details: for concentration at 7 h: female
# In short: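 Plasma levels quantified by HPLC or LC-MS using a standard curve prepared in mouse plasma, following ethyl acetate extraction with internal standard and sodium hydroxide. Sampling at 0.5, 1, 4 h (ocular bleed) and 7 h (cardiac puncture) after oral or intraperitoneal dosing.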
# human FGF-R1 = human FGF-R1 (Homo sapiens, UniProt P11362, C488A/C584S/L457V); test: FGF-R spectrophotometric assay
# Sequence of human FGF-R1 (P11362 456-766 L457V/C488A/C584S): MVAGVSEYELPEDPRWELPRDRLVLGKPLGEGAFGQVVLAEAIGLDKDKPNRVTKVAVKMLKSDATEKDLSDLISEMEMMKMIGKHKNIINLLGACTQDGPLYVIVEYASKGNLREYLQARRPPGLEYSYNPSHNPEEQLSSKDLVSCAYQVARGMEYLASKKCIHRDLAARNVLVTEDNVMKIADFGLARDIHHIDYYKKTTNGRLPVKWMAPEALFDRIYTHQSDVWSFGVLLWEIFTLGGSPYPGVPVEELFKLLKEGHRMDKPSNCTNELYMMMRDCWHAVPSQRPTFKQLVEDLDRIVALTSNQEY
# [4] = target: unphosphorylated VEGF-R2Δ50 (FLVK) (Homo sapiens, UniProt P35968, DEL940-989/E990V); test: VEGF-R2 coupled spectrophotometric assay, unphosphorylated VEGF-R2Δ50 (FLVK); details: FLVK Ki, Table 1
# Sequence of unphosphorylated VEGF-R2Δ50 (FLVK) (P35968 with tags, fused parts or gaps DEL940-989/E990V limits assumed): as the sequence (P35968 with tags, fused parts or gaps DEL940-989/E990V limits assumed) above
# CDK2/Cyclin A = CDK2/Cyclin A (Homo sapiens, UniProt P24941); test: CDK2/Cyclin A assay ([32P]ATP, Rb fragment); assay type: biochemical; details: Table 2
# CDK4/Cyclin D3 complex = CDK4/Cyclin D3 complex (Homo sapiens, UniProt P11802); test: CDK4/Cyclin D assay ([32P]ATP, Rb fragment)
# Sequence of CDK4/Cyclin D3 complex (P11802 whole entry, the tested form may be a part): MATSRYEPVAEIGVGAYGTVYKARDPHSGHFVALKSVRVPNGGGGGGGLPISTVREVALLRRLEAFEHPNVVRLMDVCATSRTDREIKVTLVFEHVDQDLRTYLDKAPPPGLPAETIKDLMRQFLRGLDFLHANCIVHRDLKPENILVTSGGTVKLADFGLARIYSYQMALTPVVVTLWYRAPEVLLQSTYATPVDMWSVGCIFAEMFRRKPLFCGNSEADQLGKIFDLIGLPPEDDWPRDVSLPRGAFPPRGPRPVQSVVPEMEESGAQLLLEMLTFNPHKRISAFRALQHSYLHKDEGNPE
# Sequence of CDK4/Cyclin D3 complex (P30281 whole entry partner, the tested form may be a part): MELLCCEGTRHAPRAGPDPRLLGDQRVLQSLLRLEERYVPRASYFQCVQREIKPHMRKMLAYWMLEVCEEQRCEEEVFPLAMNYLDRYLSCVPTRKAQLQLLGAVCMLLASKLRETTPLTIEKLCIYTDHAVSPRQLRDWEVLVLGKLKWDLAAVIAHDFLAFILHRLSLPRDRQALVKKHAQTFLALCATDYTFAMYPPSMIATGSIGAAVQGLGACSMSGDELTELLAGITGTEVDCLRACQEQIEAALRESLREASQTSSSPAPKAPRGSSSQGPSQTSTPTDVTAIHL
# [5] = IP, 25 mg/kg, vehicle PEG400:H2O pH 2.3 60:40
# [6] = PO, 50 mg/kg, vehicle PEG400:H2O pH 2.3 60:40
# [7] = IP, 25 mg/kg, vehicle PEG400:H2O pH 2.3 30:70
# [8] = PO, 25 mg/kg, vehicle PEG400:H2O pH 2.3 30:70
# [9] = PO, 25 mg/kg, vehicle PEG400:H2O pH 2.3 30:70, read-out: Cmin (7 hr conc.)
smiles,measurement,setting,value
"Cc1cncc(C(=O)Nc2cccc(C(=O)c3ccc4c(/C=C/c5ccccc5)n[nH]c4c3)c2)c1 [Example 19(e), 6-[3-(5-Methylpyridin-3-ylcarboxamido)benzoyl]-3-E-styryl-1H-indazole]",pKi,[1],7.70
"CN(c1cccc(N)c1)c1ccc2c(/C=C/c3ccc4c(c3)OCO4)n[nH]c2c1 [Example 15, N-[3-(2-Benzo[1,3]dioxol-5-yl-vinyl)-1H-indazol-6-yl]-N-methyl-benzene-1,3-diamine]",pKi,[1],7.82
"O=C(Nc1cccc(Cl)c1)c1ccccc1Sc1ccc2c(/C=C/c3ccccn3)n[nH]c2c1 [Example 33(d), 6-[2-(3-Chlorophenylcarbamoyl)phenylsulfanyl]-3-E-[2-(pyridin-2-yl)ethenyl]-1H-indazole]","% remain (HLM, 2 h)",[2],22%
same,AUClast,[3]; [5],5080 ng·h/mL
same,plasma half-life (T1/2),[3]; [5],1.6 h
same,AUClast,[3]; [6],4744 ng·h/mL
same,plasma half-life (T1/2),[3]; [6],0.9 h
same,concentration at 7 h,"[3]; IP, 25 mg/kg, vehicle PEG400:H2O pH 2.3 60:40, read-out: Cmin (7 hr conc.)",113 ng/mL
same,concentration at 7 h,"[3]; PO, 50 mg/kg, vehicle PEG400:H2O pH 2.3 60:40, read-out: Cmin (7 hr conc.)",8 ng/mL
same,pKi,human FGF-R1,7.62
same,pKi,[4],9.85
Cc1cccc(C(=O)Nc2cccc(Oc3ccc4c(-c5cc6ccccc6[nH]5)n[nH]c4c3)c2)c1 [Example 6(b)],pKi,[1],9.82
"CN(C)c1cccc(C(=O)Nc2cccc(N(C)c3ccc4c(/C=C/c5ccc6c(c5)OCO6)n[nH]c4c3)c2)c1 [Example 16(c), N-(3-{[3-(2-Benzo[1,3]dioxol-5-yl-vinyl)-1H-indazol-6-yl]-methyl-amino}-phenyl)-3-dimethylamino-benzamide]",pKi,[1],8.96
"Nc1cccc(C(=O)c2ccc3c(/C=C/c4ccccn4)n[nH]c3c2)c1 [Example 40(a), 6(3-Amino-benzoyl)-3-E-[2-(pyridin-2-yl)ethenyl]-1H-indazole]",pKi,[1],7.75
O=C(Nc1cccc(C(=O)c2ccc3c(/C=C/c4ccccc4)n[nH]c3c2)c1)OCc1ccccc1 [Example 19(c)],pKi,[1],8.23
"CSc1cc(O)ccc1-c1ccc2c(-c3nc4ccccc4[nH]3)n[nH]c2c1 [Example 24(k), 3-1H-Benzoimidazol-2-yl-6-(2-methylsulfanyl-4-hydroxyphenyl)-1H-indazole]",pKi,CDK2/Cyclin A,7.25
same,pKi,human FGF-R1,6.80
same,pKi,CDK4/Cyclin D3 complex,8.14
"Cc1cc(C(=O)Nc2cccc(C(=O)c3ccc4c(/C=C/c5ccccn5)n[nH]c4c3)c2)n(C)n1 [Example 41(p), 6-[3-((1,3-Dimethyl-1H-pyrazol-5-yl)carboxamido)benzoyl]-3-E-[2-(pyridin-2-yl)ethenyl]-1H-indazole]","% remain (HLM, 2 h)",[2],62%
same,AUClast,[3]; [7],4150 ng·h/mL
same,plasma half-life (T1/2),[3]; [7],5.5 h
same,concentration at 7 h,"[3]; IP, 25 mg/kg, vehicle PEG400:H2O pH 2.3 30:70, read-out: Cmin (7 hr conc.)",380 ng/mL
same,pKi,human FGF-R1,7.05
same,pKi,[4],10.22
Nc1cccc(Nc2ccc3c(/C=C/c4ccccc4)n[nH]c3c2)c1 [Example 46],pKi,[1],8.46
"CC(C)C(=O)Nc1cccc(C(=O)c2ccc3c(/C=C/c4ccccc4)n[nH]c3c2)c1 [Example 19(h), 6-[3-(2-Methylpropionamido)benzoyl]-3-E-styryl-1H-indazole]",pKi,[1],8.23
"CONC(=O)c1ccccc1Sc1ccc2c(/C=C/c3ccccn3)n[nH]c2c1 [Example 35(r), 6-[2-(Methoxycarbamoyl)phenylsulfanyl]-3-E-[2-(pyridin-2-yl)ethenyl]-1H-indazole]","% remain (HLM, 2 h)",[2],51%
same,AUClast,[3]; [8],4261 ng·h/mL
same,plasma half-life (T1/2),[3]; [8],1.3 h
same,concentration at 7 h,[3]; [9],67 ng/mL
same,pKi,human FGF-R1,7.70
same,pKi,[4],9.96
CN(c1cccc(NC(=O)c2ccc(O)c(C(C)(C)C)c2)c1)c1ccc2c(/C=C/c3ccc4c(c3)OCO4)n[nH]c2c1 [Example 16(f)],pKi,[1],8.55
O=C(NNc1ccccn1)c1ccccc1Sc1ccc2c(/C=C/c3ccccn3)n[nH]c2c1 [Example 35(n)],"% remain (HLM, 2 h)",[2],47%
same,AUClast,[3]; [8],4818 ng·h/mL
same,Cmax,[3]; [8],3545 ng/mL
same,plasma half-life (T1/2),[3]; [8],1.4 h
same,concentration at 7 h,[3]; [9],55 ng/mL
same,pKi,human FGF-R1,7.04
same,pKi,[4],9.08
"CC(=O)N1CCC(C(=O)Nc2cccc(Oc3ccc4c(/C=C/c5ccc(Cl)cc5)n[nH]c4c3)c2)CC1 [Example 30(b), 6-[3-(1-Acetylpiperidin-4-ylcarboxamido)phenoxy]-3-E-[2-(4-chlorophenyl)ethenyl]-1H-indazole]",pKi,[1],8.66
